Key:
Assay type in all cases: in vivo
Set-up in all cases: key: 5=total damage to plant; 0=no damage to plant
[1] = test system: Alopecurus myosuroides (ALOMY); assay: Pre-emergence herbicidal activity, glasshouse pot test; settings: Rate 1000 g/ha; sprayed one day after sowing; evaluated after 13 days
Protocol: (§1) Seeds of a variety of test species were sown in standard soil in pots: Triticum aestivium (TRZAW), Avena fatua (AVEFA), Alopecurus myosuroides (ALOMY), Echinochloa crus-galli (ECHCG), Lolium perenne (LOLPE), and Setaria faberi (SETFA). After cultivation for one day (pre-emergence) under controlled conditions in a glasshouse (at 24/16° C., day/night; 14 hours light; 65% humidity), the plants were sprayed with an aqueous spray solution derived from the formulation of the technical active ingredient in acetone/water (50:50) solution containing 0.5% Tween 20 (polyoxyethelyene sorbitan monolaurate, CAS RN 9005-64-5). The test plants were then grown in a glasshouse under controlled conditions (at 24/16° C., day/night; 14 hours light; 65% humidity) and watered twice daily. After 13 days, the test was evaluated (5=total damage to plant; 0=no damage to plant).

Avena fatua (AVEFA) [2] = assay: as above; settings: Rate 1000 g/ha; sprayed one day after sowing; evaluated after 13 days
Protocol: as §1

[3] = test system: Echinochloa crus-galli (ECHCG); assay: as above; settings: Rate 1000 g/ha; sprayed one day after sowing; evaluated after 13 days
Protocol: as §1

Lolium perenne (LOLPE) [4] = assay: as above; settings: Rate 1000 g/ha; sprayed one day after sowing; evaluated after 13 days
Protocol: as §1

Setaria faberi (SETFA) [5] = assay: as above; settings: Rate 1000 g/ha; sprayed one day after sowing; evaluated after 13 days
Protocol: as §1

[6] = test system: Triticum aestivium (TRZAW); assay: as above; settings: Rate 1000 g/ha; sprayed one day after sowing; evaluated after 13 days
Protocol: as §1

[7] = test system: Alopecurus myosuroides (ALOMY); assay: Post-emergence herbicidal activity, glasshouse pot test; settings: Rate 1000 g/ha; sprayed after 8 days cultivation; evaluated after 13 days
Protocol: (§2) Seeds of a variety of test species were sown in standard soil in pots: Triticum aestivium (TRZAW), Avena fatua (AVEFA), Alopecurus myosuroides (ALOMY), Echinochloa crus-galli (ECHCG), Lolium perenne (LOLPE), and Setaria faberi (SETFA). After 8 days cultivation (post-emergence) under controlled conditions in a glasshouse (at 24/16° C., day/night; 14 hours light; 65% humidity), the plants were sprayed with an aqueous spray solution derived from the formulation of the technical active ingredient in acetone/water (50:50) solution containing 0.5% Tween 20 (polyoxyethelyene sorbitan monolaurate, CAS RN 9005-64-5). The test plants were then grown in a glasshouse under controlled conditions (at 24/16° C., day/night; 14 hours light; 65% humidity) and watered twice daily. After 13 days, the test was evaluated (5=total damage to plant; 0=no damage to plant).

Avena fatua (AVEFA) [8] = assay: as above; settings: Rate 1000 g/ha; sprayed after 8 days cultivation; evaluated after 13 days
Protocol: as §2

[9] = test system: Echinochloa crus-galli (ECHCG); assay: as above; settings: Rate 1000 g/ha; sprayed after 8 days cultivation; evaluated after 13 days
Protocol: as §2

Lolium perenne (LOLPE) [10] = assay: as above; settings: Rate 1000 g/ha; sprayed after 8 days cultivation; evaluated after 13 days
Protocol: as §2

Setaria faberi (SETFA) [11] = assay: as above; settings: Rate 1000 g/ha; sprayed after 8 days cultivation; evaluated after 13 days
Protocol: as §2

[12] = test system: Triticum aestivium (TRZAW); assay: as above; settings: Rate 1000 g/ha; sprayed after 8 days cultivation; evaluated after 13 days
Protocol: as §2

SMILES	Control of weed species after pre-emergence application, ALOMY (damage score 0-5) [1]	Control of weed species after pre-emergence application, AVEFA (damage score 0-5) (Avena fatua (AVEFA) [2])	Control of weed species after pre-emergence application, ECHCG (damage score 0-5) [3]	Control of weed species after pre-emergence application, LOLPE (damage score 0-5) (Lolium perenne (LOLPE) [4])	Control of weed species after pre-emergence application, SETFA (damage score 0-5) (Setaria faberi (SETFA) [5])	Control of weed species after pre-emergence application, TRAZW (damage score 0-5) [6]	Control of weed species after post-emergence application, ALOMY (damage score 0-5) [7]	Control of weed species after post-emergence application, AVEFA (damage score 0-5) (Avena fatua (AVEFA) [8])	Control of weed species after post-emergence application, ECHCG (damage score 0-5) [9]	Control of weed species after post-emergence application, LOLPE (damage score 0-5) (Lolium perenne (LOLPE) [10])	Control of weed species after post-emergence application, SETFA (damage score 0-5) (Setaria faberi (SETFA) [11])	Control of weed species after post-emergence application, TRAZW (damage score 0-5) [12]
Cc1nc(-c2cncc(F)c2)cnc1N(C)C(=O)OC(C)(C)C [Compound H19, tert-butyl N-(3-methyl-5-(5-fluoropyridin-3-yl)-pyrazin-2-yl)-N-methyl-carbamate]	0	2	4	1	5	0	0	3	4	2	5	0
CC(C)(C)OC(=O)N(C(=O)OC(C)(C)C)c1ncc(-c2cncc(F)c2)nc1Br [Compound H16]	0	0	1	0	1	0	0	1	1	2	3	0
CSc1nc(-c2cncc(F)c2)cnc1NC(=O)OC(C)(C)C [Compound H24]	0	2	2	1	5	0	0	3	4	2	5	0
CC(C)(C)OC(=O)Nc1ncc(-c2cncc(F)c2)nc1C(F)(F)F [Compound H4]	0	3	4	1	5	0	0	3	5	2	5	1

Reference: patent publication US11434221B2, “Pyrazine-4-carbamate or -urea derivatives as herbicides” (Syngenta Participations AG, priority 2017, dated 2022)
